{"source": "patent US20020132276A1", "about": "“FACS method for detecton of GPIIb/IIIa inhibitor dependent activators in plasma samples” (priority 1999, published 2002)", "key": {"platelet CD62 [1]": {"tested_on": "platelet CD62", "test": "Modified DDPASFCA using the donor's own platelets", "type": "cell-based", "conditions": "healthy human donor, Compound A 200 nM", "description": "The occurrence of DDPASs in the general population was tested by a modification of the DDPASFCA using the donor's own platelets to conduct the assay. PRP (100 μL) from healthy human donors was treated with Compound A (200 nM) or vehicle for 90 minutes. A 5μL sample was transferred to microtiter wells containing 20 μL anti-CD62-PE and samples analyzed by flow cytometry as described in Example 1. Positive samples (defined as Delta PE fluorescence of >0) were retested using the method of Example 1 (heterologous donor). 8% of donors were weakly positive (delta between 10 and 25). […] Thus, the prevalence and titer of pre-existing DDPASs is relatively low in the general population."}, "platelet CD62 [2]": {"tested_on": "platelet CD62", "test": "Detection of ADP as a GPIIb/IIIa DDPAS by DDPASFCA", "type": "cell-based, human", "conditions": "ADP 0 μM", "description": "Adenosine diphosphate (ADP) was evaluated as a possible DDPAS as follows: Compound A (final concentration 1 μM) or vehicle was added to 25 μL of freshly prepared PRP in wells of a 96-well microtiter plate. Another set of wells received vehicle. After 10 minutes, 2.5 μL of from each well was transferred to microtiter wells containing only 20 μL of anti-CD62-PE. After incubation for 30 minutes, samples were analyzed by flow cytometry as in Example 1."}, "[3]": {"test": "Thrombocytopenia in a patient who received Compound A", "type": "in vivo, human", "conditions": "patient #304", "description": "The development of DDPASs in the plasma of a patient who received Compound A and developed thrombocytopenia was analyzed using the procedure of Example 1. DDPASFCA was not determined for patient #304 prior to taking Compound A. The patient experienced thrombocytopenia after 3 days of administration of Compound A. DDPASs were subsequently detected in this patient's plasma on day 22 post-administration of Compound A and were also detected 17 months later (FIG. 2). DPC38 was used as a positive control. DPC3 was used as a negative control. […] In a prospective study, a patient with such pre-existing DDPASs could be excluded from the study, possibly preventing the clinically significant thrombocytopenic episode."}, "[4]": {"tested_on": "drug-dependent anti-platelet antibody (DDAB)", "test": "Depletion and recovery of DDAB from patient 099016 plasma by platelets with Compound A, read in the DDAB ELISA", "type": "binding, human", "description": "Thrombocytopenic patient plasma was processed as described in Example 9. After treatment of 099016 plasma with platelets in the presence and in the absence of Compound A, samples were evaluated in the DDAB ELISA (see commonly-owned pending U.S. patent application Ser. No. 09/237061, filed Jan. 26, 1999, the contents of which are herein incorporated by reference) at 3 dilutions (1/100; 1/250 and 1/500) for residual DDAB. Murine JK094 was used as a positive control for the ELISA.\nThrombocytopenic patient 099016 plasma was processed with platelets in the presence or the absence of Compound A to deplete any DDAB as described in Example 9. After treatment of 099016 plasma with platelets in the presence and in the absence of Compound A, samples were evaluated in the DDAB ELISA at 3 dilutions (1/100, 1/250 and 1/500) for residual DDAB. Murine JK094 was used as a positive control for the ELISA."}, "platelet CD62 [5]": {"tested_on": "platelet CD62", "test": "Depletion of DDPAS from plasma by platelets with Compound A, and EDTA elution, read in the DDPASFCA", "type": "cell-based, human", "description": "Thrombocytopenic patient plasma was processed as described in Example 1 and Delta fluorescence is shown (FIG. 3, panel A) as a function of volume percent patient plasma. After treatment of 099016 plasma with platelets in the presence and in the absence of compound A, samples were evaluated in the DDPASFCA at a 1/3 dilution using fresh donor PRP.\nThrombocytopenic patient 099016 plasma was evaluated in the DDPASFCA as in Example 1, with the modification that 10 μL of sample, or a sample of 099016 plasma diluted into DDPASFCA-negative plasma, was combined with 20 μL donor PRP (final platelet concentration=1×10^8/mL). The signal in the DDPASFCA was proportional to the patient plasma dilution. Next, the ability of platelets, a physiologically relevant source of GPIIb/IIIa, to remove certain kinds of DDPASs was tested. DDPAS positive thrombocytopenic plasma 099016 (70 μl) was treated with fresh donor PRP (140 μL, final platelet concentration 3×10^8/mL) for 60 minutes in the presence or the absence of compound A (1 μM). Platelets were removed by centrifugation at 1000×G for 5 minutes, and the resulting plasma samples were tested in the DDPASFCA as in Example 1, with the modification that 3 μL of sample was combined with 27 μL donor PRP (final platelet concentration=1×10^8/mL) in the presence or the absence of Compound A (1 μM). […] The samples were then evaluated in the DDPASFCA."}}, "note": "“Also recorded” adds a separate entry of the source."}
{"smiles": "CCCCOC(=O)N[C@@H](CNC(=O)C[C@H]1CC(c2ccc(C(=N)N)cc2)=NO1)C(=O)O", "note": "[Compound A, 2(S)-[(n-butoxycarbonyl)amino]-3-[[[3-[4-(aminoiminomethyl)phenyl]isoxazolin-5(R)-yl]methylcarbonyl]amino]propionic acid]", "values": [{"measurement": "Delta PE fluorescence of the significantly positive sample", "setting": "platelet CD62 [1]", "result": 566}, {"measurement": "+ compound Med F12", "setting": "platelet CD62 [2]; Compound A 1 μM alone", "result": 11}, {"measurement": "Delta Med F12", "setting": "platelet CD62 [2]; with minus without Compound A 1 μM", "result": "−1"}, {"measurement": "time to thrombocytopenia after start of administration", "setting": "[3]", "result": 3, "unit": "days"}, {"measurement": "residual DDAB in plasma after treatment with platelets", "setting": "[4]; patient 099016 plasma, donor platelets, Compound A, dilutions 1/100, 1/250 and 1/500", "result": "specifically depleted the DDAB"}, {"measurement": "DDAB in EDTA eluants of platelets", "setting": "[4]; platelets treated with 099016 plasma with Compound A", "result": "showed DDAB; also recorded: contain a detectable DDAB"}, {"measurement": "residual DDPAS in plasma after treatment with platelets", "setting": "platelet CD62 [5]; patient 099016 plasma, donor PRP 60 minutes, Compound A 1 μM", "result": "depleted of the DDPAS; also recorded: specifically depleted the DDPAS"}, {"measurement": "DDPAS in EDTA eluate of platelets", "setting": "platelet CD62 [5]; platelets treated with 099016 plasma with Compound A, 9 mM EDTA, 37° C., 2 hours, versus DPC43 and DPC44", "result": "substantially positive; also recorded: elevated DDPAS"}]}
